Reference: US9757393B2 (priority 2015, dated 2017)

Key:
[1] = tested on: HFD-fed C57BL/6J mice; experiment: Body weight, food intake and tissue weight in HFD-fed mice; assay type: in vivo; conditions: for Absolute Tissue Weight BAT / Absolute Tissue Weight EWAT / Absolute Tissue Weight Liver / Absolute Tissue Weight MWAT / Absolute Tissue Weight RWAT / Absolute Tissue Weight Skeletal muscle / weight gain: oral gavage daily for 4 weeks; for weight of visceral fat: vs HF group
Experimental: (§1) Experimental Animals: the experiments are conducted under the guidelines of the Institutional Animal Care and Use Committee of Central Taiwan University of Science and Technology. As previously described, four-week-old male C57BL/6J mice (n=63) is purchased from the National Laboratory Animal Breeding and Research Center, Ministry of Science and Technology. After 1-week of acclimatization, mice are designed to initiate the study, and the study lasts for 12 weeks. […] The CON group and high-fat control (HF) group are given with vehicle only. The low-fat diet consisted of fat 10%, whereas the high-fat diet (HFD) consisted of fat 45% (of total energy, % kcal). The compositions of the experimental diets are shown as described. At the end of the study, food is derived from the animals (from 10 p.m. to 10 a.m.). On the next day, the mice are sacrificed, and blood and tissue are collected for analysis. Livers, skeletal muscles, and white adipose tissues (WATs) (including epididymal, mesenteric and retroperitoneal WAT) are excised and weighed, and then immediately stored in a freezer at −80° C. Heparin (30 units/mL) (Sigma) is added to blood samples. Plasma samples are collected by centrifugation at 1600 g for 15 min at 4° C. within 30 min, and plasma is obtained for insulin and leptin level analysis.
Body Weight, Food Intake and Tissue Weight. Throughout the embodiment, body weight and food intake are daily recorded at the same time. Body weight gain is defined as the difference between 1 day and the next day. The pellet food is weighed and placed in a cage food container. After 24 h, the remaining food is weighed and the crumbs are collected as much as possible. Based on the difference between 1 day and the next day, the daily food intake is calculated.

[2] = tested on: HFD-fed C57BL/6J mice; experiment: Blood glucose, HbA1c, blood lipids, insulin and leptin levels in HFD-fed mice; assay type: in vivo; conditions: for Blood Profiles FFA / Blood Profiles HDL-C / Blood Profiles HbA1c / Blood Profiles LDL-C: oral gavage daily for 4 weeks; for blood glucose levels / blood insulin levels / blood leptin levels / blood total cholesterol (TC) levels / blood triglyceride (TG) level: vs HF group
Experimental: as §1
Blood Glucose and HbA1c Levels. Blood samples (0.8 mL) are collected from the retro-orbital sinuses of fasting mice, and glucose level is measured by the glucose oxidase method (model 1500; Sidekick Glucose Analyzer; YSI Inc., Yellow Springs, Ohio, USA). Percent HbA1c is detected with a Hemoglobin A1c kit (BioSystems S.A., Barcelona, Spain). Plasma triglycerides (TG), total cholesterol (TC), free fatty acids (FFA), high-density lipoprotein cholesterol (HDL-C), and low density lipoprotein cholesterol (LDL-C) are determined using commercial assay kits (Triglycerides-E test, Cholesterol-E test, and FFA-C test, Wako Pure Chemical, Osaka, Japan; HDL-C-test and LDL-C-test, Roche Diagnostics GmbH, Indianapolis, USA) according to their instructions. A mouse insulin ELISA kit (Sibayagi, Gunma, Japan) and mouse leptin ELISA kit (Morinaga, Yokohama, Japan) are used to measure blood insulin and leptin levels, respectively.

[3] = tested on: phospho-Akt (Ser 473)/total Akt; experiment: Western blotting of phospho-Akt (Ser 473)/total Akt; assay type: in vivo, C57BL/6J mice; conditions: HFD-fed mice, vs HF mice
Experimental: as §1
Protein extractions and immunoblots for the determination of membrane GLUT4, phospho-AMPK (Thr172), and phospho-Akt (Ser 473) proteins are carried out on frozen skeletal muscle and liver tissue from mice, which follows a previous paper. […] The protein contents of membrane GLUT4, phospho-AMPK, phospho-Akt, total AMPK, and total Akt are detected by western blotting. Western blotting has been determined as described elsewhere. Subsequently, antibodies are detected using horseradish peroxidase linked to a goat anti-IgG rabbit secondary antibody and visualized using an ECL system. […] The density blotting is analyzed using Alpha Easy FC software (Alpha Innotech Corp., Randburg, South Africa). […]

CC(C)[C@@H](C)C=C[C@@H](C)[C@H]1CC[C@H]2C3=CCC4C[C@@H](O)CC[C@]4(C)C3=CC[C@]12C (stereo partly drawn) [ergostatrien-3β-ol, ergosta-7,9(11),22-trien-3β-ol]
food intake (consumption of high-fat diet) ([1]; all treated groups compared with HF mice): similarly | Absolute Tissue Weight BAT ([1]; 10 mg/kg/day): 0.160 ± 0.007 g | Absolute Tissue Weight EWAT ([1]; 10 mg/kg/day): 0.853 ± 0.031 g | Absolute Tissue Weight Liver ([1]; 10 mg/kg/day): 0.813 ± 0.025 g | Absolute Tissue Weight MWAT ([1]; 10 mg/kg/day): 0.276 ± 0.032 g | Absolute Tissue Weight RWAT ([1]; 10 mg/kg/day): 0.281 ± 0.016 g | Absolute Tissue Weight Skeletal muscle ([1]; 10 mg/kg/day): 0.781 ± 0.034 g | weight gain ([1]; 10 mg/kg/day): 1.30 ± 0.39 g | Absolute Tissue Weight BAT ([1]; 20 mg/kg/day): 0.143 ± 0.016 g | Absolute Tissue Weight EWAT ([1]; 20 mg/kg/day): 0.774 ± 0.057 g | Absolute Tissue Weight Liver ([1]; 20 mg/kg/day): 0.819 ± 0.025 g | Absolute Tissue Weight MWAT ([1]; 20 mg/kg/day): 0.276 ± 0.032 g | Absolute Tissue Weight RWAT ([1]; 20 mg/kg/day): 0.283 ± 0.025 g | Absolute Tissue Weight Skeletal muscle ([1]; 20 mg/kg/day): 1.167 ± 0.045 g | weight gain ([1]; 20 mg/kg/day): 1.13 ± 0.20 g | Absolute Tissue Weight BAT ([1]; 40 mg/kg/day): 0.144 ± 0.013 g | Absolute Tissue Weight EWAT ([1]; 40 mg/kg/day): 0.736 ± 0.070 g | Absolute Tissue Weight Liver ([1]; 40 mg/kg/day): 0.796 ± 0.041 g | Absolute Tissue Weight MWAT ([1]; 40 mg/kg/day): 0.244 ± 0.024 g | Absolute Tissue Weight RWAT ([1]; 40 mg/kg/day): 0.243 ± 0.041 g | Absolute Tissue Weight Skeletal muscle ([1]; 40 mg/kg/day): 1.351 ± 0.153 g | weight gain ([1]; 40 mg/kg/day): 0.37 ± 0.38 g | weight of visceral fat ([1]; 10 mg/kg/day): decrease | weight of visceral fat ([1]; 20 mg/kg/day): decrease | weight of visceral fat ([1]; 40 mg/kg/day): decrease | levels of TG (circulating) ([2]; dose not specified): moderate reduction | Blood Profiles FFA ([2]; 10 mg/kg/day): 1.06 ± 0.10 meq/L | Blood Profiles HDL-C ([2]; 10 mg/kg/day): 82.2 ± 3.9 mg/dL | Blood Profiles HbA1c ([2]; 10 mg/kg/day): 5.8 ± 0.7 % | Blood Profiles FFA ([2]; 20 mg/kg/day): 1.05 ± 0.09 meq/L | Blood Profiles HDL-C ([2]; 20 mg/kg/day): 83.0 ± 2.0 mg/dL | Blood Profiles HbA1c ([2]; 20 mg/kg/day): 5.7 ± 0.5 % | Blood Profiles LDL-C ([2]; 20 mg/kg/day): 103.7 ± 10.8 mg/dL | Blood Profiles FFA ([2]; 40 mg/kg/day): 1.03 ± 0.05 meq/L | Blood Profiles HDL-C ([2]; 40 mg/kg/day): 83.8 ± 1.6 mg/dL | Blood Profiles HbA1c ([2]; 40 mg/kg/day): 5.1 ± 0.3 % | Blood Profiles LDL-C ([2]; 40 mg/kg/day): 86.8 ± 11.5 mg/dL | blood glucose levels ([2]; 10 mg/kg/day): significantly reduce | blood insulin levels ([2]; 10 mg/kg/day): decrease | blood leptin levels ([2]; 10 mg/kg/day): decrease | blood total cholesterol (TC) levels ([2]; 10 mg/kg/day): lower | blood triglyceride (TG) level ([2]; 10 mg/kg/day): decrease | blood glucose levels ([2]; 20 mg/kg/day): significantly reduce | blood insulin levels ([2]; 20 mg/kg/day): decrease | blood leptin levels ([2]; 20 mg/kg/day): decrease | blood total cholesterol (TC) levels ([2]; 20 mg/kg/day): lower | blood triglyceride (TG) level ([2]; 20 mg/kg/day): decrease | blood glucose levels ([2]; 40 mg/kg/day): significantly reduce | blood insulin levels ([2]; 40 mg/kg/day): decrease | blood leptin levels ([2]; 40 mg/kg/day): decrease | blood total cholesterol (TC) levels ([2]; 40 mg/kg/day): lower | blood triglyceride (TG) level ([2]; 40 mg/kg/day): decrease | levels of phospho-Akt/total Akt ([3]; 10 mg/kg/day): higher | levels of phospho-Akt/total Akt ([3]; 20 mg/kg/day): higher | levels of phospho-Akt/total Akt ([3]; 40 mg/kg/day): higher
